EP0099121A2, “Pharmaceutical compositions” (Bristol-Myers Company, priority 1982, dated 1984)
Like-named read-outs stand apart in the source and are kept apart here. Where a SMILES comes first, the peptide text is derived from it. [ ]: non-standard residue; d: D form. The star is where a group is joined. Sta = CC(C)C[C@H](N)[C@@H](O)CC(=O)O; Isovaleryl = CC(C)CC(=O)*

Experiments:
pepsin [1] = experiment: 18 hour pylorus ligated rat; type: in vivo; conditions: 20 mg/kg po
[2] = all animal species studied; cited from earlier work
[3] = daily oral doses of 700 mg for up to three months; cited from earlier work
pepsin [4] = conditions: patients with ulcer dyspepsia; cited from earlier work
[5] = cited from earlier work
stomach ulcers = conditions: rat, in vivo; cited from earlier work
pepsin [6] = conditions: in the feed at >50 ppm; cited from earlier work
duodenal ulcer = conditions: 100 mg doses seven times a day, cited from earlier work
gastric ulcer = conditions: 100 mg doses seven times a day, versus placebo; cited from earlier work
pepsin [7] = conditions: cited from earlier work
pepsin [8] = conditions: duodenal ulcer; cited from earlier work

CC(C)CC(=O)N[C@H](C(=O)N[C@H](C(=O)N[C@@H](CC(C)C)[C@@H](O)CC(=O)N[C@@H](C)C(=O)N[C@@H](CC(C)C)[C@@H](O)CC(=O)O)C(C)C)C(C)C [pepstatin] (Isovaleryl-VV[Sta]A[Sta]-OH)
pepsin activity (pepsin [1]): completely inhibited
ulcer formation (pepsin [1]): antagonized ulcer formation
LD50 [2]: exceeded 3000 mg/kg
side effects [3]: no side effects were observed
effect on the gastric acidity (pepsin [4]): no effect
gastric peptic activity (pepsin [4]): inhibits gastric peptic activity
excreted in the feces ([5]; animal studies, oral, within 72 hours): more than 90%
absorption upon oral administration [5]: essentially unabsorbed
absorption upon oral administration ([5]; listed as Pepstatin): only poorly absorbed
formation of stomach ulcers (stomach ulcers): prevent the formation of stomach ulcers
occurrence of ulcers (pepsin [6]): prevented the occurrence of ulcers
pepsin activity in the gastric juice (pepsin [6]): inhibited pepsin activity
healing or symptomatology of duodenal ulcer (duodenal ulcer; versus placebo): no significant difference between pepstatin and placebo
duration of inhibition of peptic activity of gastric juice (duodenal ulcer): 18 hours a day
healing or symptomatology of gastric ulcer (gastric ulcer): not able to detect any influence
duration of pepsin suppression (pepsin [7]): about 1 hours
benefit in patients with duodenal ulcer (pepsin [8]): ineffective
